The conditions of the series: 101.33 kPa, Liquid.

Usually mass density stands for the mass of a sample divided by its volume.

Molecules are shown by their SMILES. Numbers after ± are expanded uncertainties.

Take `Cc1cccc(C)c1` [1,3-dimethylbenzene]: under “293.15 K”, the mass density is on record as 868.124 ± 0.65 kg/m3. With `CCCCCCCCCCC` [undecane], the mass density (298.15 K) was 740.289 ± 0.92 kg/m3. Turning to `CCCCn1cc[n+](C)c1.F[P-](F)(F)(F)(F)F` [1-butyl-3-methylimidazolium hexafluorophosphate], where the note is “293.15 K, Vibrating tube method”, the mass density came to 1380.33 ± 13 kg/m3. As to `CCCCCCCCC` [nonane], for the setting “293.15 K”, the mass density was found to be 718.418 ± 0.96 kg/m3. On to `c1ccccc1` [benzene], for which the mass density (298.15 K) came out at 873.945 ± 0.64 kg/m3. For the compound `Cc1ccccc1` [toluene], under “298.15 K”, the mass density is 864.989 ± 0.18 kg/m3.
